Assay results published in PMC9340770 (Journal of Medicinal Chemistry, 2022).

Assays:
[1] = molecular target: T1, CCKAR (Homo sapiens, UniProt P32238); test: Safetyscan Calcium Flux; format: cell-based
T1 construct: purchased DiscoverX (Eurofins) Safetyscan Panel

[2] = mouse, IV 3 mg/kg
[3] = molecular target: T2, VEGFR2 (Homo sapiens, UniProt P35968); test: Safetyscan Kinases Binding; settings: read-out: RC50 (IC50) VEGFR2 Inhibitor
T2 construct: purchased DiscoverX (Eurofins)

[4] = Dog PK (IV and PO); format: in vivo, beagle dogs
Text: Table 9 PK Parameters for MRTX0902 (32) across Species | column: dog

[5] = molecular target: T3, EDNRA (Homo sapiens, UniProt P25101); test: Safetyscan Calcium Flux; format: cell-based
T3 construct: purchased DiscoverX (Eurofins) Safetyscan Panel

[6] = molecular target: T4, MAOA (Homo sapiens, UniProt P21397); test: Safetyscan Enzymatic; format: biochemical; settings: read-out: RC50 (IC50) MAOA Inhibitor
T4 construct: purchased DiscoverX (Eurofins)

[7] = tested on: pERK in MIA PaCa-2 tumors; test: Tumor pharmacodynamic (pERK) study in MIA PaCa-2 mouse xenograft
[8] = molecular target: CYP3A4 (Homo sapiens, UniProt P08684); test: biochemical
[9] = molecular target: T5, HRH1 (Homo sapiens, UniProt P35367); test: Safetyscan Calcium Flux; format: cell-based
T5 construct: purchased DiscoverX (Eurofins) Safetyscan Panel

[10] = molecular target: T6, SOS2 (Homo sapiens, UniProt Q07890); test: SOS2 KRAS WT GDP exchange assay; format: biochemical
T6 construct: amino acids 558-1047, expressed in E. coli with a N-terminal HIS-tag MW=59.3 kDa; His (N); purchased Accelagen Inc; host or cells: E. coli
Description: The plates were incubated overnight at 4 °C on a shaker.
Each plate was washed 3x times […]
for 2 hours (protected from light). The secondary antibody solution as removed and each plate […]
was washed with PBST 3x times. […]
length at 3mm and both 800nm and 700nm filters. The GAPDH normalized scan values for each […]
were then calculated with the Graph pad Prism software.
EGFR selectivity was profiled using Reaction Biology’s radiometric HotSpot kinase assay with human EGFR. Compounds were sent as a powder then suspended as a 10 mM DMSO stock […]
starting at 20 μM. Reactions were carried out at 10 μM ATP.
SOS2 KRAS WT GDP Exchange Assay
The final conditions for the Functional SOS2 Assay are as follows: 50 mM HEPES 7.5, 2nM SOS2, 50nM GTP-CY5, 30nM KRAS, 0.5 nM Tb-SA, 5 mM MgCl2, 1 mM TCEP, 0.2 mg/mL BSA, ~1.0% DMSO. Recombinant human SOS2 polypeptide (Accelagen Inc., corresponding to amino acids 558-1047, expressed in E. coli with a N-terminal HIS-tag MW=59.3 kDa) and Cy5-GTP (Jena Bioscience Inc) were added to an exemplary compound (in a DMSO stock solution) at room temperature for 15 minutes. […] 100 percent of control (POC) is determined by using a DMSO control and 0 POC is determined using a concentration of control […]

T5 sequence (P35367 whole entry): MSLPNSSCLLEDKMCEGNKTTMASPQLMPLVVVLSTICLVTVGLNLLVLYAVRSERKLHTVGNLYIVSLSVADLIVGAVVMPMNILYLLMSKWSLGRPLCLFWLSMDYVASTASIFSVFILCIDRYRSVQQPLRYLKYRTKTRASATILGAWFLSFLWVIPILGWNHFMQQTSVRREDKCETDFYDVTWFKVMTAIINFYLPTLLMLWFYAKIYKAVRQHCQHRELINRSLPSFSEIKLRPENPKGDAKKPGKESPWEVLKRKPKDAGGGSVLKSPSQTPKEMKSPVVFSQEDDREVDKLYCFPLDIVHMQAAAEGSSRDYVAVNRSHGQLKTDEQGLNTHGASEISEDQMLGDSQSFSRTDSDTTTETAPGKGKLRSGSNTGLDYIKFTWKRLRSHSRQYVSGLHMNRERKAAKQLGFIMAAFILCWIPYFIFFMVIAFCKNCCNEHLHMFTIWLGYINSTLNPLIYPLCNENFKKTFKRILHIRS
T1 sequence (P32238 whole entry): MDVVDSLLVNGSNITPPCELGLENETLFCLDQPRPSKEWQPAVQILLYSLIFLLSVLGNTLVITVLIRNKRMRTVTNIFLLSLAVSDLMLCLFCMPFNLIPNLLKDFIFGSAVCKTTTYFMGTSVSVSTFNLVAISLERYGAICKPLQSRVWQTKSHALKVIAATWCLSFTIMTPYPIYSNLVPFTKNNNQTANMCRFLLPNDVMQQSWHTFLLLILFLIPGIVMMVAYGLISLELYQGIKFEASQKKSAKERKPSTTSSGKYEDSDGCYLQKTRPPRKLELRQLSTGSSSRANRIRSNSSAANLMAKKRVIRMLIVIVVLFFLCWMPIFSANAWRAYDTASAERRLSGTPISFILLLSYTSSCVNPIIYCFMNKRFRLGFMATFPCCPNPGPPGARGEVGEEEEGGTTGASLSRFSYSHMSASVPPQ
T3 sequence (P25101 21-427): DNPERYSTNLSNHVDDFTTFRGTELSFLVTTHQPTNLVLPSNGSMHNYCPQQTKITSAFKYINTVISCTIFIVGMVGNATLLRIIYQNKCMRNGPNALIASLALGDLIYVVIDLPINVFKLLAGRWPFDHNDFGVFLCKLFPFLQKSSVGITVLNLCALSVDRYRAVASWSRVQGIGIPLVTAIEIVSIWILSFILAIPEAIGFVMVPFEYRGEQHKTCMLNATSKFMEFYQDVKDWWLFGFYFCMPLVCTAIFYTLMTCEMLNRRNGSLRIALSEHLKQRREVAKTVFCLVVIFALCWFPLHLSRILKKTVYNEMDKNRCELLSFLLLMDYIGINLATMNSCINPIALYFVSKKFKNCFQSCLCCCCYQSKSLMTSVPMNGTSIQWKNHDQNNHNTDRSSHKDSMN
T6 sequence (Q07890 558-1047): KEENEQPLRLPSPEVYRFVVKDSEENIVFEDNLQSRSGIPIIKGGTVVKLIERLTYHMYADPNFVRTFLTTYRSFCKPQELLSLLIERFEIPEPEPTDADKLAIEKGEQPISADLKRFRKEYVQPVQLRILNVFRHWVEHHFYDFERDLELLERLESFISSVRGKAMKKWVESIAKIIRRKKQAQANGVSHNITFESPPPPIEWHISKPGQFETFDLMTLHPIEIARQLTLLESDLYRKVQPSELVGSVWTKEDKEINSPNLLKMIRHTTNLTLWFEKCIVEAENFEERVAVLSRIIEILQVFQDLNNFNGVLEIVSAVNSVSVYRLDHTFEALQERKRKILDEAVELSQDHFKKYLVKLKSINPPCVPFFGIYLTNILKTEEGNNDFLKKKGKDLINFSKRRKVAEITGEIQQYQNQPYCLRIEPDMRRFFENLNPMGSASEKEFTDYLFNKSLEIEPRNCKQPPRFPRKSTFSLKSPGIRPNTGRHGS
Chain of CYP3A4 (P08684 whole entry): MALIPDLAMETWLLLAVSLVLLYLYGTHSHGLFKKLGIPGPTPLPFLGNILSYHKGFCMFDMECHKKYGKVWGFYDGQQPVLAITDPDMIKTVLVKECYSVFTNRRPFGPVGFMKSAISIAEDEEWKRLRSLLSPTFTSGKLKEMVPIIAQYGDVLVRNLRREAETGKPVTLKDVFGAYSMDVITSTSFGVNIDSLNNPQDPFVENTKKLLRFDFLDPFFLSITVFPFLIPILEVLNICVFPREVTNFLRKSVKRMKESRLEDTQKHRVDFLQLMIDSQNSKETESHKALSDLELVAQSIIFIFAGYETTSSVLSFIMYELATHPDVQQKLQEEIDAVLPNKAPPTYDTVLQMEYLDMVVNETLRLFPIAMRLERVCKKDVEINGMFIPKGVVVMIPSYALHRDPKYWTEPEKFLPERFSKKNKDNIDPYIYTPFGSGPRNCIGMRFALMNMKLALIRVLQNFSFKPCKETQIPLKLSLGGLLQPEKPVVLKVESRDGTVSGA
T4 sequence (P21397 whole entry): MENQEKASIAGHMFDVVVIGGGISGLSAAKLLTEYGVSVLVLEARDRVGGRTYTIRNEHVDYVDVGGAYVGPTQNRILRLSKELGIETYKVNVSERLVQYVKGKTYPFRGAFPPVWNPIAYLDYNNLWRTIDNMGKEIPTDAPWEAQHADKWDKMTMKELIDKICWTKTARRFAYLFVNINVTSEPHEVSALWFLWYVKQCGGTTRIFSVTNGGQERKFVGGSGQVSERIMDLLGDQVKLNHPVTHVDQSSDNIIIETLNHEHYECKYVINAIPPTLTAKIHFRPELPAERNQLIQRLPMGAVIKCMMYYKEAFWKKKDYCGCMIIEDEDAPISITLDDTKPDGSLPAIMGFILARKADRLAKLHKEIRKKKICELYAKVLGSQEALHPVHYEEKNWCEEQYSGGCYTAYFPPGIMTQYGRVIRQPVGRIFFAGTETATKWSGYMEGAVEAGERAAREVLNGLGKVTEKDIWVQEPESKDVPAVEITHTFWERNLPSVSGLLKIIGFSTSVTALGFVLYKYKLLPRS
T2 sequence (P35968 20-1356): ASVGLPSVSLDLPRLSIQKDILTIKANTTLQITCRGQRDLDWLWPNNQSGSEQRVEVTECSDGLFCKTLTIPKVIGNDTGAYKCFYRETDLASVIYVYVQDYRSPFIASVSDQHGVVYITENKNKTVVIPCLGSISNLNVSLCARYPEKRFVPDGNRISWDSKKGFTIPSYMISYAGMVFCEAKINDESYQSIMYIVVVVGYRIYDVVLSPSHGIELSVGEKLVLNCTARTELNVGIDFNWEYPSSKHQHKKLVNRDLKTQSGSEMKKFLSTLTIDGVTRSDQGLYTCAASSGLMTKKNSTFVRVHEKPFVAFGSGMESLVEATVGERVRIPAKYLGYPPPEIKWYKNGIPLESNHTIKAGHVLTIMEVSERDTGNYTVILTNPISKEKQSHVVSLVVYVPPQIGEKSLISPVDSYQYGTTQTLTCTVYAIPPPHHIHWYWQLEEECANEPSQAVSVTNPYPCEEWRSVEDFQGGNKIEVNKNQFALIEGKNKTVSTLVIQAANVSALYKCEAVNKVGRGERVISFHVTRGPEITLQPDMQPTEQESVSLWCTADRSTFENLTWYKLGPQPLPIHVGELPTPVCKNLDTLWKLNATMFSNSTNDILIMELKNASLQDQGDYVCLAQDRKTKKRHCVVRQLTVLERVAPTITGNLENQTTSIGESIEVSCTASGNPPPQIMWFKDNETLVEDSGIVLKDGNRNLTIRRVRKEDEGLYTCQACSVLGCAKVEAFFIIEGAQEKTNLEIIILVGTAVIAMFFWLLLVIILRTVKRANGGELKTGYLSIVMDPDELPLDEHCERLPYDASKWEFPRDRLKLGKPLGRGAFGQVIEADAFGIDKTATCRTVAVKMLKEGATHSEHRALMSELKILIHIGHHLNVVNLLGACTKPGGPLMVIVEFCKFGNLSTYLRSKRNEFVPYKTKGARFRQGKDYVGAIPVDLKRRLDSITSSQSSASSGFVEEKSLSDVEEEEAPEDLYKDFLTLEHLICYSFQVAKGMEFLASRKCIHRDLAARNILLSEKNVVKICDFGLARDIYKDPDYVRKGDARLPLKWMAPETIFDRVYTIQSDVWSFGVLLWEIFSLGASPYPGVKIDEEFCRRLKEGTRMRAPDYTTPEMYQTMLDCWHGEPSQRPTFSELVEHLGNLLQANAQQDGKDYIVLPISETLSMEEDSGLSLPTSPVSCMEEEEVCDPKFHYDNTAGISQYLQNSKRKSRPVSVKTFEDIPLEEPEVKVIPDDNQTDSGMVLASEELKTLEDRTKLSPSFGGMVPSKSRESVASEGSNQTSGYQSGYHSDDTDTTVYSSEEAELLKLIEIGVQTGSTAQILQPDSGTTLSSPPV

Molecule `Cc1c(C#N)cccc1[C@@H](C)Nc1nnc(C)c2cnc(N3CCOCC3)cc12` [Compound 32, (R)-2-Methyl-3-(1-((4-methyl-7-morpholinopyrido[3,4-d]pyridazin-1-yl)amino)ethyl)benzonitrile] has an EC50 ([1]; agonist mode, read-out: RC50 (EC50) CCKAR Agonist) greater than 10 µM, an IC50 ([1]; antagonist mode, read-out: RC50 (IC50) CCKAR Antagonist) greater than 10 µM and a Cl [2] of 4.4 mL/min/kg. The “IV t1/2” value [2] was 1.3 h, the “Vd,ss” value [2] was 0.28 L/kg and the IC50 [3] was greater than 10 µM. For the same molecule, the F ([4]; IV/PO 2/10 mg/kg, PO suspension in 0.5% MC (4000 cps)/0.2% Tween80 in water) was 38%, the clearance ([4]; beagle, in vivo, IV 2 mg/kg) was 7.6 mL/min/kg and the half-life ([4]; beagle, in vivo, IV 2 mg/kg, read-out: IV t1/2 (converted)) was 51.6 min. For the same molecule, the Vd ([4]; beagle, in vivo, IV 2 mg/kg, read-out: Vd,ss) was 0.48 L/kg, the EC50 ([5]; agonist mode, read-out: RC50 (EC50) EDNRA Agonist) was greater than 10 µM and the IC50 ([5]; antagonist mode, read-out: RC50 (IC50) EDNRA Antagonist) was greater than 10 µM. For the same molecule, the IC50 [6] was 8.88 µM, the “pERK modulation in tumors, combination” value ([7]; MRTX0902 in combination with MRTX849, 6 days of dosing, tumors collected 4 h after last dose) was “increased pERK modulation” and the “efficacious free Cavg” value ([7]; calculated from AUC0–24 of 50 mg/kg bid in combination with MRTX849, MIA PaCa-2 PD study, 6 days of dosing) was 25 nM. It also gave an IC50 [8] of 3.6 µM, an EC50 ([9]; agonist mode, read-out: RC50 (EC50) HRH1 Agonist) greater than 10 µM and an IC50 ([9]; antagonist mode, read-out: RC50 (IC50) HRH1 Antagonist) greater than 10 µM. For the same molecule, the IC50 [10] was greater than 10 µM.
